Measured values reported in article PMC3574224, “Na^+ Regulation in the Malaria Parasite Plasmodiumfalciparum Involves the Cation ATPase PfATP4 and Is a Target of the Spiroindolone Antimalarials” (Cell Host & Microbe, 2013).

Key:
[1] = test system: P. falciparum 3D7 trophozoites; assay: microbe, parasite or virus in culture; assay type: cell-based, Plasmodium falciparum
Method: P. falciparum strains 3D7, Dd2, NITD609-R^Dd2 clone #2, Dd2^attB, and Dd2^attB CAM I398F/P990R were cultured under shaking conditions as described elsewhere ([Allen and Kirk, 2010]). Cultures were synchronized 24 hr before experimentation using 5% w/v sorbitol ([Lambros and Vanderberg, 1979]). All experiments were conducted on mature trophozoite-stage parasites (36–40 hr postinvasion) functionally isolated from their host erythrocytes by permeabilization of the erythrocyte and parasitophorous vacuole membranes by brief exposure to saponin (0.05% w/v) as described previously ([Spillman et al., 2008]).
(§1) The [Na^+]i of saponin-isolated parasites was measured at 37°C using the Na^+-sensitive dye SBFI (Molecular Probes, Invitrogen) in conjunction with a PerkinElmer LS 50B Fluorescence Spectrometer fitted with a Dual Excitation Fast Filter. Saponin-isolated parasites were loaded with SBFI by suspension (at 1.40–1.80 × 10^8 cells/mL) for 20 min at 37°C in bicarbonate-free RPMI1640 supplemented with 20 mM D-glucose, 0.2 mM hypoxanthine, 25 mM HEPES, and 25 mg/L gentamycin sulfate (pH 7.10), to which SBFI-acetoxymethyl ester (5.5 μM) and Pluronic F-127 (0.01% w/v) were added. The dye-loaded cells were washed twice (12,000 × g, 0.5 min) in bicarbonate-free RPMI then incubated for a further 20 min at 37°C to allow for complete de-esterification of the dye before being resuspended at a final cell concentration of 1.5–2.5 × 10^7 cells/mL in standard saline. The dye-loaded cells were excited at 340 nm and 380 nm with fluorescence recorded at 490 nm. Calibration of the relationship between the 340/380 nm fluorescence ratio and [Na^+]i (see Figures S1A–S1C) was carried out as described previously ([Diarra et al., 2001]; [Harootunian et al., 1989]).
The initial Na^+ influx rate (at t = 0) is a × Δ[Na^+]i^max.
Dose-response curves were obtained using the expression y = y^min + y^max/(1 + [C/IC50]^b), where y is the parameter being measured (parasite proliferation, Na^+ influx, or ATPase activity), y^min is the minimum value of y, y^max is the maximum value of y, C is the concentration of the moiety that was varied in the experiment, IC50 is the concentration at which y was reduced to 50% of y^max, and b is a fitted constant.

[2] = test system: P. falciparum trophozoites; assay: Cytosolic pH (pHi) in BCECF-loaded saponin-isolated parasites; assay type: cell-based, Plasmodium falciparum; conditions: 50 nM
Method: pHi of saponin-isolated parasites was measured using the pH-sensitive indicator BCECF (Molecular Probes, Invitrogen) as described previously ([Saliba and Kirk, 1999]). […] Critical experiments performed using SBFI-loaded parasites were repeated with parasites loaded with BCECF.

[3] = biological target: T1, membrane-associated ATPase activity in P. falciparum infected human erythrocytes (3D7) (Plasmodium falciparum, UniProt A0A143ZZK9); assay: Membrane-associated ATPase activity (Pi production), infected erythrocyte membranes; assay type: biochemical; conditions: 50 nM
T1 construct: saponin-isolated parasites were lysed by suspension in ice-cold water; endogenous in cells; host or cells: membrane preparation of saponin-isolated mature trophozoite-stage P. falciparum 3D7 parasites
Method: For the preparation of uninfected erythrocyte membranes, packed uninfected erythrocytes were lysed by incubation for 5 min in ice-cold PBS containing 0.1% (w/v) saponin together with 1/500 Protease Inhibitor Cocktail Set III (Calbiochem). The erythrocyte ghosts were pelleted by centrifugation (12,000 × g, 10 min) and washed three times in ice-cold water (12,000 × g, 10 min) immediately prior to their use in the ATPase assay. To prepare membranes from parasitised erythrocytes, saponin-isolated parasites were lysed by suspension in ice-cold water (containing 1/500 Protease Inhibitor Cocktail Set III) then washed three times in ice-cold water (12,000 × g, 10 min) before their immediate use in the ATPase assay. The ATPase activity of membrane preparations from uninfected erythrocytes and saponin-isolated parasites was estimated from the rate of hydrolysis of ATP and measured using the PiColorLock Gold Phosphate (Pi) Detection System (Innova Biosciences). Briefly, membrane preparations from 1–3 × 10^8 cells were suspended in reaction buffer (100 mM of either NaCl or choline chloride, 50 mM Tris-HCl, 20 mM KCl, and 2 mM MgCl2) at 37°C. The ATPase reaction was initiated by the addition of 0.25 mM Na2ATP. Note that it was necessary to use the Na^+ salt of ATP, rather than the K^+ and Mg^2+ salts, as the latter both contain residual Pi that saturated the Pi detection system. […]

[4] = test system: P. falciparum Dd2^attB parent; assay: Disruption of [Na^+]i regulation, SBFI-loaded trophozoites, Dd2^attB parent; assay type: cell-based; conditions: Plasmodium falciparum, from fitted curves, read-out: IC50 for disruption of Na^+ regulation by NITD246
Method: as §1, with “1989]). Several inhibitors used in this study caused inner filter effects ([Gu and Kenny, 2009]; [Srinivas and Mutharasan, 1987]); in these cases calibration curves were generated with the inhibitors present. […]” for “1989]).”

T1 sequence (A0A143ZZK9 whole entry): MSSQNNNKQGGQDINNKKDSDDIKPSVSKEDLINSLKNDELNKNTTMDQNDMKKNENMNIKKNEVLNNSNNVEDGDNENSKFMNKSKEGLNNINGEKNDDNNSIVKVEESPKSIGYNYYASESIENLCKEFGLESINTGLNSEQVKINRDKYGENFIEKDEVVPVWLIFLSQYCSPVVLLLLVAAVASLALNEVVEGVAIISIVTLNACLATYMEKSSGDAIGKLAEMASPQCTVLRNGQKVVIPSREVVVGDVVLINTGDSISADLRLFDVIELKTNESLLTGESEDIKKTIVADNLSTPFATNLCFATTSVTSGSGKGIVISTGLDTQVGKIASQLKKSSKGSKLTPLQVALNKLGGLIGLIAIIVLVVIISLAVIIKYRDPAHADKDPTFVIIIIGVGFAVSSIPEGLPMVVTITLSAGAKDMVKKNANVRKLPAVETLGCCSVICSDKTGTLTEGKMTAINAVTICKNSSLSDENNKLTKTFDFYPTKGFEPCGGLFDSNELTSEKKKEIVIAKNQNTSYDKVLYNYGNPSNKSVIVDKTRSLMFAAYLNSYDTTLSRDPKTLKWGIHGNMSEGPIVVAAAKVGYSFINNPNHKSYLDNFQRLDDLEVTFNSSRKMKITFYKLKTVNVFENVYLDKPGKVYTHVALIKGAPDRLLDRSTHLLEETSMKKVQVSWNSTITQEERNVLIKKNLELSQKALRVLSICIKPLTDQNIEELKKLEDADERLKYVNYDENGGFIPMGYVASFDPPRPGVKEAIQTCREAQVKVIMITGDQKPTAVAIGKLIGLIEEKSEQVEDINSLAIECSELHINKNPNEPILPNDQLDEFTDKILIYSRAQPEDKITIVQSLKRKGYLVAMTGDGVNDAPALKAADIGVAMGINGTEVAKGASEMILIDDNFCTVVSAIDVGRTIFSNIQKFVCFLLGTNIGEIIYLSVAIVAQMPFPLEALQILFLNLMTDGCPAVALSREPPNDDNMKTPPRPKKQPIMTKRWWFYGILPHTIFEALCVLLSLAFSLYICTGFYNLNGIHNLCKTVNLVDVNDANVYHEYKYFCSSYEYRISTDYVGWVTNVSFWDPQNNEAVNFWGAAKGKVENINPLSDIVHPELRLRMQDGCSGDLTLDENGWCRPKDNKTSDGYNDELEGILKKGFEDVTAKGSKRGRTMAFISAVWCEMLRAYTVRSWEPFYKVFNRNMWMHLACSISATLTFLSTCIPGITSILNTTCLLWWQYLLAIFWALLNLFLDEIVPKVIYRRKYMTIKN

SMILES: C[C@H]1Cc2c([nH]c3cc(F)c(F)cc23)[C@@]2(N1)C(=O)Nc1ccc(Cl)cc12 [NITD246]
- Effect on resting [Na^+]i ([1]; 50 nM, 3D7, standard saline): immediate rapid increase in [Na^+]i
- IC50 ([1]; Plasmodium falciparum, concentration causing [Na^+]i to increase from resting value at half the maximal rate, from fitted curves, 3D7, standard saline, read-out: IC50 for disruption of Na^+ regulation): 2.1 ± 0.8 nM
- Rate of increase of [Na^+]i at maximally effective concentrations ([1]; maximally effective concentration): 0.092 ± 0.007 mM/s
- Cytosolic pH (pHi) after addition ([2]; Na^+-containing medium pH 7.1, increase from 7.33 ± 0.03, n = 6, p = 0.009): 7.46 ± 0.02
- Effect on pHi ([2]; solution containing choline^+ in place of Na^+): no significant effect
- remaining activity at 0.05 µM ([3]; 100 mM Na^+, n = 5, p = 0.020, read-out: ATPase activity, % of the control value): 60%
- Effect on ATPase activity ([3]; low (0.5 mM) [Na^+] medium, p = 0.63): no significant change
- IC50 [4]: 1.7 ± 0.5 nM
